Consider two compounds from article PMC4164784, “4E-BPs require non-canonical 4E-binding motifs and a lateral surface of eIF4E to repress translation” (Nature Communications, 2014).

In one assay the test system is eIF4E. As to conditions: 4E-BP1,2 non-canonical motifs; cited from earlier work. An excerpt: The immunoprecipitation assays shown in Fig. 1e–g indicate that similar to CUP, Thor and 4E-T contain NC motifs that interact with the lateral binding surface of eIF4E. In human 4E-BP1,2, the NC IPGVTS/T motif (located C-terminally to the C motif), increases the binding affinity of the proteins for eIF4E by approximately three orders of magnitude. However, the IPGVTS/T motif is not conserved across the animal kingdom (Supplementary Fig. 2c). Nevertheless, several hydrophobic residues are present in the corresponding region in Dm Thor (residues Pro76–Pro84; Supplementary Fig. 2c). || Owing to their lack of conservation, it has remained unclear whether non-canonical motifs are present in all 4E-BPs[38]. […] At the functional level, non-canonical motifs have been proposed to play an auxiliary role and have been mainly implicated in the regulation of the affinity of eIF4E for the mRNA cap structure through allosteric effects. Specifically, the binding of the 4E-BP1,2 non-canonical ...

The next assay relates to CRM1. Also noted: method as in PMID 15465908, PMID 10856257, PMID 9190288. The conditions noted are these: cited from earlier work.
Assay [1] relates to endogenous eIF4E and HA-tagged 4E-BPs in S2 cells. Description: Immunofluorescence localization in S2 cells. It is filed as cell-based, Drosophila melanogaster. The conditions noted are these: S2 cells, LMB 100 nM, 12 h.

With “human 4E-BP1,2: human eIF4E-binding proteins 1 and 2 with NC IPGVTS/T motif”, the “effect of NC motif binding on affinity of eIF4E for the cap structure (in words)” value in the assay with eIF4E is on record as “increases the affinity for the cap structure”.

For `CCC(=C/[C@H](C)C/C=C/C(C)=C/[C@@H](C)C(=O)[C@@H](C)[C@H](O)[C@@H](C)C/C(C)=C/C(=O)O)/C=C/[C@@H]1OC(=O)C=C[C@@H]1C` [LMB, Leptomycin B, reference compound], the “inhibition of nuclear export by CRM1 (in words)” value with CRM1 is reported as “inhibits nuclear export by CRM1”. Besides, in assay [1], the “nuclear accumulation of 4E-BP upon LMB (in words)” value was “induced the nuclear accumulation of CUP and 4E-T proteins”.
